Experimental data from ChEMBL document CHEMBL5126572, “Synthesis and biological evaluation of new series of benzamide derivatives containing urea moiety as sEH inhibitors” (Bioorg Med Chem Lett, 2022).
Each block holds one compound with its values, some of them ahead of it. Calls of active or inactive are those of the source.

How the values were obtained:
[1] = molecular target: T1, Bifunctional epoxide hydrolase 2 (Homo sapiens) (UniProt P34913); test: Inhibition of sEH (unknown origin) at 100 nM relative to control
T1 sequence (whole entry): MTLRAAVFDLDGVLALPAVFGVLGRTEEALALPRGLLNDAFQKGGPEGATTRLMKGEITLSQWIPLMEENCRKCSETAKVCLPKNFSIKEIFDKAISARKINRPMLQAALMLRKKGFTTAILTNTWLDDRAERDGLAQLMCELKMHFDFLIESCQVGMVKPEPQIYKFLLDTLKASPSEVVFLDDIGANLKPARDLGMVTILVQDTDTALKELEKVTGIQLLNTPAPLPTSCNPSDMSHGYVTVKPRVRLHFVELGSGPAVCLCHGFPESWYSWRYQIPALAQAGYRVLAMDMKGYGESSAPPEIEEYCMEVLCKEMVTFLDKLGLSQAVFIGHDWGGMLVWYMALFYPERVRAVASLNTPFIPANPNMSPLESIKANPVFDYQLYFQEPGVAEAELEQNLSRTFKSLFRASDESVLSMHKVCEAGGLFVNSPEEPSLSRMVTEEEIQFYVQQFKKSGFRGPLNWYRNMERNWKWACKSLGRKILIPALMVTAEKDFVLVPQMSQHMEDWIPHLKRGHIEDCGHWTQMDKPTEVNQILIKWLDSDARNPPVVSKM

[2] = Microsomal stability in human liver microsomes assessed as half life; format: ADME, Microsome
[3] = Microsomal stability in dog liver microsomes assessed as half life; format: ADME, Canis lupus familiaris, Microsome
[4] = Microsomal stability in rat liver microsomes assessed as half life; format: ADME, Microsome
[5] = Microsomal stability in mouse liver microsomes assessed as half life; format: ADME, Microsome
Rattus norvegicus = test: Antinociceptive activity in carrageenan-induced inflammatory pain Sprague-Dawley rat model assessed as increase in mechanical withdrawal threshold at 50 mg/kg, ip by von-frey filament assay; format: functional, organism-based

inhibition [1]: 62.8%
Compound: Cc1cc(C(=O)Nc2nccs2)ccc1N(CCN1CCOCC1)C(=O)Nc1ccc(Cl)cc1

inhibition [1]: 83.3%
Compound: Cc1cc(C(=O)Nc2ccc3c(c2)OCO3)ccc1N(CCN1CCCC1)C(=O)Nc1ccc(Cl)cc1

inhibition [1]: 85.8%
Compound: Cc1cc(C(=O)Nc2ccccn2)ccc1N(CCN1CCOCC1)C(=O)Nc1ccc(Cl)cc1

inhibition [1]: 97.8%
Compound: Cc1cc(C(=O)Nc2ccc(F)cn2)ccc1N(CCN1CCOCC1)C(=O)Nc1ccc(Cl)cc1

inhibition [1]: 87.7%
Compound: Cc1cc(C(=O)Nc2cnn(C)c2)ccc1N(CCN1CCOCC1)C(=O)Nc1ccc(Cl)cc1

inhibition [1]: 98.5% | half-life [2]: 197 min | half-life [4]: 27.3 min | half-life [5]: 35.8 min | half-life [3]: 137 min
Compound: Cc1cc(C(=O)Nc2ccc(Cl)cc2)ccc1N(CCN1CCCC1)C(=O)Nc1ccc(Cl)cc1
Activity (Rattus norvegicus): Active

inhibition [1]: 95.6% | half-life [2]: 6.9 min | half-life [5]: 4 min | half-life [3]: 5.2 min
Compound: Cc1cc(C(=O)Nc2ccc3c(c2)OCO3)ccc1N(CCN1CCOCC1)C(=O)Nc1ccc(Cl)cc1

inhibition [1]: 75.9%
Compound: Cc1cc(C(N)=O)ccc1N(CCN1CCOCC1)C(=O)Nc1ccc(Cl)cc1

inhibition [1]: 90.4%
Compound: Cc1cc(C(=O)Nc2ccc(Cl)cc2)ccc1N(CCN1CC[S+]([O-])CC1)C(=O)Nc1ccc(Cl)cc1

inhibition [1]: 62.3%
Compound: Cc1cc(C(=O)Nc2cnccn2)ccc1N(CCN1CCOCC1)C(=O)Nc1ccc(Cl)cc1

inhibition [1]: 84.5%
Compound: CC(=O)c1ccc(NC(=O)c2ccc(N(CCN3CCOCC3)C(=O)Nc3ccc(Cl)cc3)c(C)c2)cc1

inhibition [1]: 92.5%
Compound: Cc1cc(C(=O)Nc2ccc(Cl)cc2)ccc1N(CCN1CCCCC1)C(=O)Nc1ccc(Cl)cc1

inhibition [1]: 64%
Compound: Cc1cc(C(=O)Nc2ccc(C#N)cc2)ccc1N(CCN1CCOCC1)C(=O)Nc1ccc(Cl)cc1

inhibition [1]: 67.1%
Compound: Cc1cc(C(=O)Nc2ccc(Cl)cc2)ccc1N(CCN1CCOC[C@H]1C)C(=O)Nc1ccc(Cl)cc1

inhibition [1]: 83.7%
Compound: Cc1cc(C(=O)Nc2ccc(Cl)cc2)ccc1N(CCN1CCSCC1)C(=O)Nc1ccc(Cl)cc1

inhibition [1]: 87.8% | half-life [2]: 5.8 min | half-life [4]: 5.4 min | half-life [5]: 7.7 min | half-life [3]: 5.4 min
Compound: Cc1cc(C(=O)Nc2ccc(C(F)(F)F)nc2)ccc1N(CCN1CCOCC1)C(=O)Nc1ccc(Cl)cc1

inhibition [1]: 94.8% | half-life [2]: 27.5 min | half-life [4]: 16 min | half-life [5]: 26.2 min | half-life [3]: 33.5 min
Compound: Cc1cc(C(=O)Nc2ccc(F)cn2)ccc1N(CCN1CCCC1)C(=O)Nc1ccc(Cl)cc1

Second part, the compound before the results:

Compound: Cc1cc(C(=O)Nc2ccc3c(c2)OCO3)ccc1N(CCN1CCCC1=O)C(=O)Nc1ccc(Cl)cc1
inhibition [1]: 92.7% | half-life [2]: 3.9 min | half-life [3]: 3.3 min

Compound: Cc1cc(C(=O)Nc2ccc(Cl)cc2)ccc1N(CC(C)C)C(=O)Nc1ccc(Cl)cc1
inhibition [1]: 69.4%

Compound: Cc1cc(C(=O)Nc2ccc(Cl)cc2)ccc1N(CCN(C)C)C(=O)Nc1ccc(Cl)cc1
inhibition [1]: 67.7%

Compound: O=C(NC12CC3CC(CC(C3)C1)C2)N[C@H]1CC[C@H](Oc2ccc(C(=O)O)cc2)CC1
Activity (Rattus norvegicus): Active

Compound: COCCN(C(=O)Nc1ccc(Cl)cc1)c1ccc(C(=O)Nc2ccc(Cl)cc2)cc1C
inhibition [1]: 70.5%

Compound: Cc1cc(C(=O)Nc2ccc(Cl)cc2)ccc1N(CC(=O)N1CCOCC1)C(=O)Nc1ccc(Cl)cc1
inhibition [1]: 95.7% | half-life [2]: 31.9 min | half-life [4]: 45.9 min | half-life [5]: 28.3 min | half-life [3]: 37 min

Compound: CCN(CC)CCN(C(=O)Nc1ccc(Cl)cc1)c1ccc(C(=O)Nc2ccc(Cl)cc2)cc1C
inhibition [1]: 67.2%

Compound: Cc1cc(C(=O)Nc2ccc(Cl)cc2)ccc1N(CCN1CCOCC1=O)C(=O)Nc1ccc(Cl)cc1
inhibition [1]: 93.9% | half-life [2]: 9.1 min | half-life [4]: 10.7 min | half-life [5]: 8.9 min | half-life [3]: 12.9 min

Compound: Cc1cc(C(=O)Nc2ccc(Cl)cc2)ccc1N(CCN1CCOC[C@@H]1C)C(=O)Nc1ccc(Cl)cc1
inhibition [1]: 63.1%

Compound: Cc1cc(C(=O)Nc2ccc(Cl)cc2)ccc1N(CCO)C(=O)Nc1ccc(Cl)cc1
inhibition [1]: 74.3%

Compound: Cc1cc(C(=O)Nc2ccc(Cl)cc2)ccc1NC(=O)Nc1ccc(Cl)cc1
inhibition [1]: 80.3%

Compound: Cc1cc(C(=O)Nc2ccc(Cl)cc2)ccc1N(CCN1CCS(=O)(=O)CC1)C(=O)Nc1ccc(Cl)cc1
inhibition [1]: 95.2%

Compound: Cc1cc(C(=O)Nc2ccc(Cl)cc2)ccc1N(CCN1CCCC1=O)C(=O)Nc1ccc(Cl)cc1
inhibition [1]: 98.9% | half-life [2]: 9.5 min | half-life [4]: 4.5 min | half-life [5]: 8.8 min | half-life [3]: 11 min

Compound: Cc1cc(C(=O)Nc2ccc(F)cn2)ccc1N(CCN1CCCC1=O)C(=O)Nc1ccc(Cl)cc1
inhibition [1]: 94.5% | half-life [2]: 4 min | half-life [4]: 3.1 min | half-life [5]: 3.7 min | half-life [3]: 3.1 min

Compound: Cc1ccc(-c2cc(C(F)(F)F)nn2-c2ccc(S(N)(=O)=O)cc2)cc1
Activity (Rattus norvegicus): Active
